“Also recorded” adds a separate entry of the source. Where a name gives a salt, the structure may show the parent alone. Read-outs that look alike come from different tables or passages of the source.
What was measured:
Assay type in all cases: physicochemical
[1] = Chemical and physical stability of the salts at the end of the preparation
Description: It is crucial for drug development whether the salts obtained as above have chemical and physical stability at the end of the preparation. The chemical and physical stability of the salts at the end of the preparation includes: […]

[2] = Solid solubility test (2 h and 24 h); settings: for XRPD measured at 2 h: state of sample / solid fraction; for XRPD measured at 24 h: 24 h test, state of sample
Description: samples were weighed for each amorphous salt solid (equivalent to 20 mg of free base), and 10 mL of the following solvents were respectively added: 0.1N HCl solution (pH 1.0), 50 mM phosphate buffer (pH 4.5), FeSSIF-V1 (pH 5.0), FaSSIF-V1 (pH 6.5) and SGF (pH 2.0), […] The suspension was then centrifuged at 37° C., the supernatant was measured for solubility by HPLC, and the solid fraction was measured for XRPD. The target solubility was at least 2 mg (based on free base)/mL.

[3] = Solid storage stability test; settings: for Original morphology / Original purity: original solid before storage; for chemical and physical stability after storage (summary): solid/25° C./60% RH/open/1 week and/or solid/60° C./closed container/1 week
Description: Each amorphous salt solid was weighed (two 2 mg samples were weighed for purity testing after solid storage stability study, and one 10 mg sample was weighed for XRPD testing after solid storage stability study) and placed in a glass vial. In a 25° C./60% RH solid storage stability test, the amorphous salt solid was placed in a 25° C./60% RH constant temperature and humidity chamber, and placed in the dark for 1 week (i.e. “solid/25° C./60% RH/open/1 week”), and in a 60° C. solid storage stability test, the amorphous salt solid was sealed in an oven at 60° C. and heated for 1 week in the dark (i.e. “solid/60° C./closed container/l week”). Then the sample was taken out for purity testing, crystal form detection and appearance observation, respectively.

[4] = listed as amorphous 1 eq. maleate salt
[5] = FaSSIF-V1 (pH 6.5) (Test ES4, partly printed ES1)
[6] = FaSSIF-V1 (pH 6.5) (Test ES4, partly printed ES1), 37° C., based on free base
[7] = Test ES1: 0.1N HCl solution (pH 1.0)
[8] = Test ES1: 0.1N HCl solution (pH 1.0), 37° C., based on free base
[9] = Test ES2: 50 mM phosphate buffer (pH 4.5)
[10] = Test ES2: 50 mM phosphate buffer (pH 4.5), 37° C., based on free base
[11] = Test ES3: FeSSIF-V1 (pH 5.0), 37° C., based on free base
[12] = Test BS1: solid/25° C./60% RH/open/1 week
[13] = solid/60° C./closed container/1 week (Test BS1)
[14] = listed as amorphous 1 eq. mesylate salt

SMILES: C=CC(=O)Nc1cc(Nc2ncnc(-c3cn(C)c4ccccc34)n2)c(OC)cc1N(C)CCN(C)C [Example 9]
- chemical and physical stability at the end of the preparation ([1]; listed as 1 eq. maleate salt): chemically and physically stable
- chemical and physical stability at the end of the preparation [1, 4]: chemically and physically stable
- pH measured at 2 h [2, 5]: (6.1)
- Solubility measured at 2 h [2, 6]: >2000 µg/mL
- XRPD measured at 2 h [2, 5]: clear solution
- solubility at 2 h ([2]; SGF, 37 °C, pH 2, simulated gastric fluid, thermodynamic from solid, Test ES5: SGF (pH 2.0), 37° C., based on free base, read-out: Solubility measured at 2 h): > 2000 µg/mL
- pH measured at 2 h [2, 7]: (0.8)
- Solubility measured at 2 h [2, 8]: >2000 µg/mL
- XRPD measured at 2 h [2, 7]: clear solution
- pH measured at 2 h [2, 9]: (4.3)
- Solubility measured at 2 h [2, 10]: >2000 µg/mL
- XRPD measured at 2 h [2, 9]: clear solution
- pH measured at 2 h ([2]; Test ES3: FeSSIF-V1 (pH 5.0)): (4.8)
- Solubility measured at 2 h [2, 11]: >2000 µg/mL
- XRPD measured at 2 h ([2]; Test ES3: FeSSIF-V1 (pH 5.0)): clear solution
- pH measured at 2 h ([2]; Test ES5: SGF (pH 2.0)): (2.0)
- XRPD measured at 2 h ([2]; Test ES5: SGF (pH 2.0)): clear solution
- Purity [3, 12]: 99.7%
- Original morphology [3]: amorphous
- Original purity [3]: 99.8%
- chemical and physical stability after storage (summary) ([3]; listed as 1 eq. maleate salt): chemically unstable; also recorded: physically unstable
- chemical and physical stability after storage (summary) [3, 4]: chemically unstable; also recorded: physically unstable
- physical and chemical stability under storage (in words) ([3]; solid/25° C./60% RH/open/1 week, listed as amorphous 1 eq. maleate salt): slight color change and showed a certain hygroscopicity (agglomeration)
- decrease in purity ([3]; solid/60° C./closed container/1 week): about 2%
- Purity [3, 13]: 98.2%
- physical and chemical stability under storage (in words) ([3]; solid/60° C./closed container/1 week, listed as amorphous 1 eq. maleate salt): transformed from amorphous to a low crystallinity

SMILES: C=CC(=O)Nc1cc(Nc2ncnc(-c3cn(C)c4ccccc34)n2)c(OC)cc1N(C)CCN(C)C [Example 16]
- chemical and physical stability at the end of the preparation ([1]; listed as L-malate salt): chemically unstable
- chemical and physical stability at the end of the preparation ([1]; listed as amorphous L-malate salt): at least chemically unstable

SMILES: C=CC(=O)Nc1cc(Nc2ncnc(-c3cn(C)c4ccccc34)n2)c(OC)cc1N(C)CCN(C)C [Example 4]
- chemical and physical stability at the end of the preparation ([1]; listed as 1 eq. mesylate salt): chemically and physically stable
- chemical and physical stability at the end of the preparation [1, 14]: chemically and physically stable
- pH measured at 2 h [2, 5]: (6.5)
- Solubility measured at 2 h [2, 6]: >2000 µg/mL
- XRPD measured at 2 h [2, 5]: clear solution
- pH measured at 2 h [2, 7]: (0.7)
- Solubility measured at 2 h [2, 8]: >2000 µg/mL
- XRPD measured at 2 h [2, 7]: clear solution
- pH measured at 2 h [2, 9]: (4.5)
- Solubility measured at 2 h [2, 10]: >2000 µg/mL
- XRPD measured at 2 h [2, 9]: clear solution
- pH measured at 2 h ([2]; Test ES3: FeSSIF-V1 (pH 5.0)): (4.8)
- Solubility measured at 2 h [2, 11]: >2000 µg/mL
- Solubility measured at 24 h ([2]; Test ES3: FeSSIF-V1 (pH 5.0)): >2000 µg/mL
- pH measured at 24 h ([2]; Test ES3: FeSSIF-V1 (pH 5.0)): (5.0)
- XRPD measured at 24 h ([2]; Test ES3: FeSSIF-V1 (pH 5.0)): clear solution
- XRPD measured at 2 h ([2]; Test ES3: FeSSIF-V1 (pH 5.0)): clear solution
- Solubility measured at 24 h ([2]; Test ES4: FaSSIF-V1 (pH 6.5)): >2000 µg/mL
- pH measured at 24 h ([2]; Test ES4: FaSSIF-V1 (pH 6.5)): (6.6)
- XRPD measured at 24 h ([2]; Test ES4: FaSSIF-V1 (pH 6.5)): clear solution
- pH measured at 2 h ([2]; Test ES5: SGF (pH 2.0)): (2.0)
- Solubility measured at 2 h ([2]; Test ES5: SGF (pH 2.0), 37° C., based on free base): >2000 µg/mL
- XRPD measured at 2 h ([2]; Test ES5: SGF (pH 2.0)): clear solution
- Purity [3, 12]: 99.8%
- Original morphology [3]: amorphous
- Original purity [3]: 99.9%
- chemical and physical stability after storage (summary) ([3]; listed as 1 eq. mesylate salt): chemically and physically stable
- chemical and physical stability after storage (summary) [3, 14]: chemically and physically stable
- physical and chemical stability under storage (in words) ([3]; solid/25° C./60% RH/open/1 week, listed as amorphous 1 eq. mesylate salt): good physical and chemical stability
- Purity [3, 13]: 99.9%
- physical and chemical stability under storage (in words) ([3]; solid/60° C./closed container/1 week, listed as amorphous 1 eq. mesylate salt): good physical and chemical stability

SMILES: C=CC(=O)Nc1cc(Nc2ncnc(-c3cn(C)c4ccccc34)n2)c(OC)cc1N(C)CCN(C)C [Example 12]
- chemical and physical stability at the end of the preparation ([1]; listed as amorphous sulfate salt): chemically stable at the end of the preparation, but was physically unstable due to a certain hygroscopicity
- chemical and physical stability at the end of the preparation ([1]; listed as sulfate salt): physically unstable

SMILES: C=CC(=O)Nc1cc(Nc2ncnc(-c3cn(C)c4ccccc34)n2)c(OC)cc1N(C)CCN(C)C [Example 11]
- chemical and physical stability at the end of the preparation ([1]; listed as amorphous nitrate salt): at least chemically unstable
- chemical and physical stability at the end of the preparation ([1]; listed as nitrate salt): chemically unstable

SMILES: C=CC(=O)Nc1cc(Nc2ncnc(-c3cn(C)c4ccccc34)n2)c(OC)cc1N(C)CCN(C)C [sulfosalicylate salt]
- chemical and physical stability at the end of the preparation [1]: chemically and physically stable
- chemical and physical stability at the end of the preparation ([1]; listed as amorphous sulfosalicylate salt): chemically and physically stable

SMILES: C=CC(=O)Nc1cc(Nc2ncnc(-c3cn(C)c4ccccc34)n2)c(OC)cc1N(C)CCN(C)C [Example 13]
- chemical and physical stability at the end of the preparation ([1]; listed as 2 eq. p-tosylate salt): physically unstable
- chemical and physical stability at the end of the preparation ([1]; listed as amorphous 2 eq. p-tosylate salt): chemically stable and reasonable in terms of the base:acid stoichiometric ratio at the end of the preparation, but was physically unstable due to caking and fusion to a glassy state upon short exposure to environmental conditions

SMILES: C=CC(=O)Nc1cc(Nc2ncnc(-c3cn(C)c4ccccc34)n2)c(OC)cc1N(C)CCN(C)C [Example 18]
- chemical and physical stability at the end of the preparation ([1]; listed as 1 eq. L-tartrate): chemically unstable
- chemical and physical stability at the end of the preparation ([1]; listed as amorphous 1 eq. L-tartrate): chemically unstable
- chemical and physical stability at the end of the preparation ([1]; listed as amorphous 1 eq. L-tartrate salt): at least chemically unstable

SMILES: C=CC(=O)Nc1cc(Nc2ncnc(-c3cn(C)c4ccccc34)n2)c(OC)cc1N(C)CCN(C)C [Example 17]
- chemical and physical stability at the end of the preparation ([1]; listed as 1 eq. citrate salt): chemically unstable
- chemical and physical stability at the end of the preparation ([1]; listed as amorphous 1 eq. citrate salt): at least chemically unstable

SMILES: C=CC(=O)Nc1cc(Nc2ncnc(-c3cn(C)c4ccccc34)n2)c(OC)cc1N(C)CCN(C)C [Example 14]
- chemical and physical stability at the end of the preparation ([1]; listed as Y11526-25-FD13-1,4-dioxane): chemically and physically stable

SMILES: C=CC(=O)Nc1cc(Nc2ncnc(-c3cn(C)c4ccccc34)n2)c(OC)cc1N(C)CCN(C)C [Example 15]
- chemical and physical stability at the end of the preparation ([1]; listed as Y11526-25-FD12-1,4-dioxane): chemically and physically stable
